From patent US20250059139A1, “COMPOUNDS FOR TREATMENT OF CANCER” (THE JOHNS HOPKINS UNIVERSITY, priority 2021, published 2025)

Biological target: T1, fl-HDAC4 (Homo sapiens, UniProt P56524)
T1 construct: Full-length (fl) [A.A. 1-1082] recombinant human histone deacetylase 4 (rhHDAC4) protein; FLAG (N); GST (given as 'with or without'); made in house; host or cells: HEK293-T
Test: HDAC4 enzymatic assay with Lys(Tfa)-AMC substrate
Assay type: biochemical
Experimental: HDAC4 Enzymatic Assay. HDAC4 activity of the various recombinant forms used through these studies was assayed using the small non-protein Lys(Tfa)-AMC as described previously (Bottomley et al. J. Biol. Chem. 2008, 283:26694-26704). The specificity of this assay is documented via its inhibition by a small molecule trifluoroacetylthiophene-trifluoromethylketone derivative (TFT-PIP) described previously (id.).
Thus, TasQ's inhibition of HDAC4/NCoR1 formation involves only its binding to HDAC4. To resolve whether such TasQ binding involves the ZCD vs. ZRD in HDAC4, we took advantage of the fact that while HDAC4 has only marginal deacetylase activity against acetylated lysine-containing proteins, it can deacetylate a small non-protein trifluoroacetamide substrate (a.k.a., Lys(Tfa)-AMC). This reaction is inhibited by a small molecule trifluoroacetylthiophene-trifluoromethylketone derivative [a.k.a., TFT-PIP (FIG. 16)] due to its binding to the catalytic Zn^2+ in the ZCD, which locks the ZRD in the open conformation (Bottomley 2008).

T1 sequence (P56524 whole entry): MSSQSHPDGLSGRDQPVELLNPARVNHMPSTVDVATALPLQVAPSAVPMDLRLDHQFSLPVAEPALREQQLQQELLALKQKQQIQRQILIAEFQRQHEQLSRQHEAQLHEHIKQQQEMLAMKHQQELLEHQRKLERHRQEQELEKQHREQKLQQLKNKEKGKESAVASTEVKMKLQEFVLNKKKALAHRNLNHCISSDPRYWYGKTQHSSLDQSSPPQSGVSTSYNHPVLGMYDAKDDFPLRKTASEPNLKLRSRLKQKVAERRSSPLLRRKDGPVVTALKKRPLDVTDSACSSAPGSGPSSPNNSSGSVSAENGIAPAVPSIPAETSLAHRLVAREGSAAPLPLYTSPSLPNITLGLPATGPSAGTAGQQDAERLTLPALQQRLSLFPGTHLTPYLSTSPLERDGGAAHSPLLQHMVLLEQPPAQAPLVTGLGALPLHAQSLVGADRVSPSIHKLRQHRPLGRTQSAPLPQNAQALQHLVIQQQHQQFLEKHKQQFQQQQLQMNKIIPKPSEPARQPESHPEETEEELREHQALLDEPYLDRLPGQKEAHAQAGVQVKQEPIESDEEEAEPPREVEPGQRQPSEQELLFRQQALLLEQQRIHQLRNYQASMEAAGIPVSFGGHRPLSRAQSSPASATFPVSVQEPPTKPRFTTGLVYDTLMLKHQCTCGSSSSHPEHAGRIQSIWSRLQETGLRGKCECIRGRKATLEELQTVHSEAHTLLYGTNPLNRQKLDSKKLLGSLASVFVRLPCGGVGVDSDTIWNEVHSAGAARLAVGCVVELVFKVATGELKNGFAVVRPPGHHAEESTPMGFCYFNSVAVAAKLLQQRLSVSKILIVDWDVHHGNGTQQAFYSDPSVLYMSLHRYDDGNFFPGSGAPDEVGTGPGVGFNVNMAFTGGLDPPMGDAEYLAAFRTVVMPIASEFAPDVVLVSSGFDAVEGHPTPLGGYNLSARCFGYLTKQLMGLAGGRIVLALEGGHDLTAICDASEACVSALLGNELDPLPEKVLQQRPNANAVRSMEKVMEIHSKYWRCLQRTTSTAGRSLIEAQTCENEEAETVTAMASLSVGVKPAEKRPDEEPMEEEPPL

effect on enzymatic activity of fl-HDAC4: inhibited
SMILES: O=C(c1ccc(C(=O)C(F)(F)F)s1)N1CCn2c(-c3ccccc3)cnc2C1 [TFT-PIP]
